According to article PMC8617031, “Development of a BCL-xL and BCL-2 dual degrader with improved anti-leukemic activity,” (Nature Communications, 2021):
“And” between values parts separate entries of the source, which are not always exact repeats. Equal entries are not always repeated.

Legend:
[1] = molecular target: T1, BCL-xL (Homo sapiens, UniProt Q07817); assay: BCL-xL degradation by immunoblot in 293T cells; type: cell-based; conditions: 16 h; for normalized BCL-xL protein content: 293T, Supplementary Fig. 1b
T1 construct: endogenous in cells
Procedure: (§1) The DC50 and Dmax were calculated using Prism based on the ImageJ-quantified western blots in Supplementary Fig. 4. c, d AlphaLISA assay to determine the formation of BCL-xL/PROTAC/VHL-ELOC-ELOB (VCB) (c) or BCL-2/PROTAC/VCB (d) ternary complex in a cell-free condition. Data represent the mean of a single experiment with 2 technical replicates. Similar results were obtained in one more independent experiment. e, f NanoBRET assays evaluating intracellular BCL-xL/PROTAC/VCB (e) or BCL-2/PROTAC/VCB (f) ternary complex formation. […] Data are expressed as mean ± s.e.m. of three biological replicates. Source data are provided as a Source data file.
(§2) Representative immunoblots are shown in (a–d) and β-actin was used as a loading control in all immunoblot analyses. The normalized protein content in the immunoblots is presented as mean values ± s.e.m. (n = 3 biologically independent experiments) in the bar graph (bottom panel). e, f The formation of BCL-xL/PROTAC/VCB (e) and BCL-2/PROTAC/VCB (f) ternary complexes in a cell-free condition was determined by AlphaLISA assay. Data represent the mean of a single experiment with 2 technical replicates. […] Source data are provided as a Source data file.
(§3) Cells were collected, washed once with ice-cold phosphate-buffered saline, pH 7.2 (PBS, cat. no. 20012027; Thermo Fisher Scientific) and lysed in RIPA lysis buffer (Cat. No. BP-115DG, Boston Bio Products, Ashland, MA, USA) supplemented with protease and phosphatase inhibitor cocktails (Cat. No. PPC1010, Sigma-Aldrich, St. Louis, MO, USA) through sonication. The samples were centrifuged at 14,000 r.p.m. for 5 min and the supernatants were transferred into a new tube. The protein concentration in the supernatants was determined using the Pierce BCA protein Assay kit (cat. no. 23225, Thermo Fisher Scientific). The protein concentration was normalized, and the samples were reduced in 4× Laemmli’s SDS-sample buffer (cat. no. BP-110R, Boston Bio Products) and denatured at 95 °C for 5 min. An equal amount of protein samples (20–40 μg per lane) were resolved using precast 4–20% Tris-glycine gels (Mini-PROTEAN TGX, cat. no. 456–1094, Bio-Rad), and resolved proteins were transferred onto 0.2-µm pore size polyvinylidene difluoride (PVDF) blotting membranes (cat. no. LC2002, Thermo Fisher Scientific) using mini trans-blot electrophoretic transfer cell (Bio-Rad). The membranes were blocked with non-fat dry milk (5% wt/vol) in 1× Tris-buffered saline-Tween-20 (TBST, cat. no. J77500, Affymetrix) for 1 h at room temperature, and were subsequently probed with primary antibodies at a predetermined optimal concentration in non-fat dry milk (5% wt/vol in TBST) overnight at 4 °C. The membranes were washed three times (5 min each) in TBST and then incubated with horse radish peroxidase (HRP)-conjugated secondary antibodies for 1 h at room temperature. Following sufficient washing with TBST, the membranes were exposed with chemiluminescent HRP substrate (cat. no. WBKLS0500, MilliporeSigma), and the signal was detected using the ChemiDoc MP Imaging System (Bio-Rad) and quantified using the ImageJ (v1.53a) software from NIH.

[2] = molecular target: T2, BCL-2 (Homo sapiens, UniProt P10415); assay: BCL-2 degradation by immunoblot in 293T cells; type: cell-based; conditions: 293T, 16 h, Supplementary Fig. 1b
T2 construct: endogenous in cells
Procedure: as §1, §2, §3

[3] = test system: BCL-xL/PROTAC/VCB ternary complex (HiBit-BCL-xL, HaloTag-VHL); assay: NanoBRET intracellular ternary complex formation in 293T cells, BCL-xL; type: cell-based, human; conditions: NanoBRET, 293T cells, 6 h
Description: (§4) Plasmids HaloTag-VHL (Cat. No. CS1679C155) and CMV HiBit (Cat. No. CS1956B03) were purchased from Promega. HiBit-BCL-xL and HiBit-BCL-2 were constructed previously. The two mutants (HiBit-BCL-xL-K157-only and HiBit-BCL-xL-K-ko) were constructed through Gibson assembly method. The primer pair (5′-[…]-3′ and 5′-[…]c[…]-3′) and the template Flag-BCL-xL-K157-only or Flag-BCL-xL-K-ko (pDL2129)[2] were used to clone the BCL-xL-K157-only-containing and BCL-xL-K-ko-containing fragments, respectively. The primer pair (5′-[…]g[…]-3′ and 5′-[…]-3′) and pBit3.1-N (Cat. No. N2361, Promega) were used to clone the vector-containing fragment. The PCR fragments were assembled using NEBuilder® HiFi DNA Assembly Master Mix (Cat. No. E2621, NEB, Ipswich, MA, USA). DNA sequences in all these plasmids were authenticated by automatic sequencing. […] After 24 h, 2 × 10^4 transfected cells were seeded into white 96-well tissue culture plates in Gibco™ Opti-MEM™ I Reduced Serum Medium, No Phenol Red (Cat. No. 11-058-021, Fisher) containing 4% FBS with or without HaloTag NanoBRET 618 Ligand (Cat. No. PRN1662, Promega) and incubated overnight at 37 °C, 5% CO2. The following day, serial diluted compounds were added into the medium and plates were incubated at 37 °C, 5% CO2, for 6 h. After treatment, NanoBRET Nano-Glo Substrate (cat. no. N1662, Promega) was added into the medium, and the contents were mixed by shaking the plate for 30 s before measuring donor and acceptor signals on Biotek plate reader. Dual-filtered luminescence was collected with a 450/50 nm bandpass filter (donor, NanoBiT-BCL-XL protein or NanoBiT-BCL-2 protein) and a 610-nm longpass filter (acceptor, HaloTag NanoBRET ligand) using an integration time of 0.5 s. mBRET ratios were calculated following the NanoBRET™ Nano-Glo® Detection System (Cat. No. N1662, Promega).

[4] = test system: BCL-2/PROTAC/VCB ternary complex (HiBit-BCL-2, HaloTag-VHL); assay: NanoBRET intracellular ternary complex formation in 293T cells, BCL-2; type: cell-based, human; conditions: NanoBRET, 293T cells, 6 h
Description: as §4

[5] = XZ739 concentration 0.003 (unit not given), untreated = 100, 2 replicates

T1 sequence (Q07817 whole entry): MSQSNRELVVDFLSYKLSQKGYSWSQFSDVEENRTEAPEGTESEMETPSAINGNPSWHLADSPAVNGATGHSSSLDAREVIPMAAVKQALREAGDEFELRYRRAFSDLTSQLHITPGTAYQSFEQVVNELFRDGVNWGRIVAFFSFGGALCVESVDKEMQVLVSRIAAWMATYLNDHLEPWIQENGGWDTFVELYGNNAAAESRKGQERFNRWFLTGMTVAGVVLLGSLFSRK
T2 sequence (P10415 whole entry): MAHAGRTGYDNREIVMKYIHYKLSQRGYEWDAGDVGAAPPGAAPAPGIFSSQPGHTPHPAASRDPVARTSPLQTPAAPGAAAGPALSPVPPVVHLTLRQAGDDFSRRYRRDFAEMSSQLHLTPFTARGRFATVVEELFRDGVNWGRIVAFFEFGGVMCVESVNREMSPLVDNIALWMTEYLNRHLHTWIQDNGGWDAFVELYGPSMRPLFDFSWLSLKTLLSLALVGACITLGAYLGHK

In the case of CN(CCOCCOCCOCCNc1cccc2c1C(=O)N(C1CCC(=O)NC1=O)C2=O)CC[C@H](CSc1ccccc1)Nc1ccc(S(=O)(=O)NC(=O)c2ccc(N3CCN(CC4=C(c5ccc(Cl)cc5)CCC(C)(C)C4)CC3)cc2)cc1S(=O)(=O)C(F)(F)F (some centres unmarked) [XZ739, reference compound], the “BCL-xL degradation (in words)” value ([1]; 293T cells) is reported as “could degrade BCL-xL”, the “normalized BCL-xL protein content” value [1, 5] is reported as 88 and 95 and the “normalized BCL-xL protein content” value ([1]; concentration 0.01) is reported as 85 and 86. The “normalized BCL-xL protein content” value ([1]; concentration 0.03) was 76 and 80, the “normalized BCL-xL protein content” value ([1]; concentration 0.1) was 67 and 65 and the “normalized BCL-xL protein content” value ([1]; concentration 0.3) was 32 and 40. The “normalized BCL-xL protein content” value ([1]; concentration 1) was 32 and 31, the “normalized BCL-xL protein content” value ([1]; concentration 3) was 22 and 19 and the “normalized BCL-2 protein content” value [2, 5] was 116 and 103. For the same molecule, the “normalized BCL-2 protein content” value ([2]; concentration 0.01) was 119 and 99, the “normalized BCL-2 protein content” value ([2]; concentration 0.03) was 113 and 104 and the “normalized BCL-2 protein content” value ([2]; concentration 0.1) was 114 and 109. The “normalized BCL-2 protein content” value ([2]; concentration 0.3) was 119 and 101, the “normalized BCL-2 protein content” value ([2]; concentration 1) was 102 and 95 and the “normalized BCL-2 protein content” value ([2]; concentration 3) was 97 and 102. The “intracellular ternary complex formation with BCL-xL (in words)” value [3] was “formed cellular ternary complexes with both BCL-xL and BCL-2” and the “intracellular ternary complex formation with BCL-2 (in words)” value [4] was “formed cellular ternary complexes with both BCL-xL and BCL-2”.
